Here are results for 1 substance from patent publication US8158577B2, “Modulation of cartilage homeostasis by active domains of cell binding extracellular matrix molecules” (priority 2004, dated 2012).

One assay has as its system K105 cells. Description: Adhesion of K105 cells to chondroadherin in the presence of synthetic peptide (FIG. 3, 5A-5B, 13). Format: cell-based, human. Conditions: 1 hour at 37° C. As for the experimental part: Human cells (K9) originating from a human chondrosarcoma were a kind gift from Drs. Sven Inerot and Anders Lindahl, The Salgrenska University Hospital Gothenburg, Sweden. The K9 cells were cultured in Dulbeccos Modified Eagle Medium: Nutrient Mixture F12 (DMEM/F12 1:1) with GLUTAMAX I, supplemented with 10% fetal calf serum, 25 μg/ml ascorbic acid, 50 IU of penicillin and 50 μg/ml streptomycin (Life Technologies, Inc.). A different human cells line (K105) originating from a human chondrosarcoma was a kind gift from Dr. Sven Inerot, The Salgrenska University Hospital, Gothenburg, Sweden. The K105 cells were cultured in a mix of 40% Dulbeccos Modified Eagle Medium, 40% Minimum Essential Media (MEM) alpha Medium, 10% Nutrient Mixture F1 supplemented with 100 nM hydrocortisone, 100 ng/ml insulin, 10% fetal calf serum, 25 μg/ml ascorbic acid, 50 IU of penicillin and 50 μg/ml streptomycin (Life Technologies, Inc.). To harvest cells, culture dishes were rinsed three times with Ca^2+/Mg^2+-free PBS and the cells were incubated with 0.5% trypsin and 1 mM EDTA for 5 min. Detached cells were suspended in PBS containing 1 mg/ml trypsin inhibitor (Sigma) and then washed in PBS. To remove membrane-bound collagens the cells were treated with collagenase 100 U/ml (CLSPA; Worthington Biochemical Corp., Lakewood, N.J.) in PBS, 30 min. 37° C. and then washed in PBS.
Tissue culture 48-wells dishes (Nunclon, Nunc, Denmark) were coated overnight with 5 μg/ml chondroadherin in 4M Guanidine-HCl, 50 mM sodium acetate, pH 5.8, or for native protein in PBS. Alternatively coating was with 5 μg/ml collagen type II in PBS followed by after-coating with 0.5% BSA in PBS for 3 hours. Collagen type II was isolated from bovine nasal cartilage by pepsin digestion (11). Bacterially expressed chondroadherin was isolated as described above. Recombinant chondroadherin expressed in EBNA cell was cloned and purified as described elsewhere (8).
To test cell binding, the chondrosarcoma cells or bovine chondrocytes were suspended in PBS containing 0.1% BSA, 25 U/ml collagenase and added to the wells (50,000/well), in the absence or presence of various peptide pools or the synthetic peptides (200, 100, 50, 25, 12.5 μg/ml). Non-adherent cells were removed after 1 hour and adhesion was determined by measuring lysosomal N-acetylglucosaminidase (12). Adhesion and spreading was visualized by light microscopy. In the time studies, k105 cells were allowed to adhere for 30 minutes, unbound cells were removed and medium without serum supplemented with or without peptides (250 μg/ml), β1 integrin antibody (clone P4C10, Gibco BRL), EDTA (5 mM) was added. Cell morphology was visualized by light microscopy after 1, 3 and 20 hours.
Study design: Tissue culture dishes (48-wells) were coated with 5 μg/ml chondroadherin expressed in E. coli and blocked for non-specific binding with BSA. […] were suspended in PBS containing 0.1% BSA, 25 U/ml collagenase and added to the wells (50,000/well) in the presence of synthetic peptide to be tested and allowed to adhere for 1 hour at 37° C. Nonadherent cells were removed by washing, and adhesion was determined by analyzing lysosomal hexosaminidase.
A 12-mer peptide (1947.01) plus an N-terminal cysteine (CQLRGLRRWLEAK) (SEQ ID NO. 3) representing the candidate sequence identified by mass spectrometry were synthesized and its ability to inhibit cell adhesion was determined. Tissue culture dishes were coated with 5 μg/ml chondroadherin expressed in E. coli and blocked for non-specific binding with BSA. The cells were suspended in PBS containing 0.1% BSA, 25 U/ml collagenase and added to the wells (50,000/well) in the presence of synthetic peptide (200, 100, 50, 25, 12.5 μg/ml) and allowed to adhere for 1 hour at 37° C. Nonadherent cells were removed by washing, and adhesion was determined by analyzing lysosomal hexosaminidase. […]

Assay [1] concerns m-BSA antigen induced monoarthritis in rat. Description: In vivo antigen induced arthritis, knee-joint swelling. As to conditions: intra-articular, twice daily. As for the experimental part: The following model experiment measure the effect of the investigated compound on knee-joint swelling using antigen induced arthritis.
The effect of locally administered test compound, 400 mM given twice daily, on the development of arthritis in m-BSA antigen induced monoarthritis in rat was evaluated. Animals treated with saline or Methotrexate (in clinically relevant dose) were used as controls.
Study design: Female Dark Agouti rats, weighing approximately 150 g (B&K breeding center, Denmark) were used. The animals were sensitised intradermally at the tail root with 1 mg mBSA (Sigma A-1009) dissolved in […] and emulsified in […] complete adjuvant (Sigma F 5881). Ten days later the rats were shaved (left knee) and challenged with an intraarticular (i.a) injection of […]. Test compounds were administered intra-articular (left knee) in […] four hours before challenge and thereafter twice daily. The development of arthritis (knee diameters) was registered with an odimeter/calliper. The procedures were carried out under a brief Enflurane anaesthesia. The animals were sacrificed at day 4 after challenge/first treatment.

Assay [2] deals with IL-1 stimulated cartilage. Description: NO release in IL-1 stimulated cartilage explants (Griess reaction). Format: cell-based, bovine. Conditions: 400 uM peptide, IL-1a 10 ng/ml. Here is the method:
The following experiments measure the effect of a peptide on NO release in IL-1 stimulated cartilage.
Study design: A skinned bovine nose (from cows 18-24 months old) was collected at Hörby slaughter house (Team Ugglarp, Sweden). The septum inside the nose was cut out and the mucosa and the perichondrium was removed before the cartilage was placed in PBS with PEST (100 IU penicillin, 100 μg/ml streptomycin) and 2.5 μg/ml Fungizone (all from Invitrogen, Sweden) for 2 hours at room temperature.
Two mm pieces were punched out of the cartilage. Each piece was placed in a 24-well cell culture plate (Falcon, Sweden) containing 1 ml cell culture medium, HAMs F12 (Invitrogen, Sweden) supplemented with 10 μg/ml BSA, […] (both from Sigma, Sweden), PEST (100 IU penicillin, […]) and 2.5 μg/ml Fungizone. After 24 hours, the medium was changed and the cartilage pieces were stimulated with human recombinant IL-1a, 10 ng/ml (Roche, Sweden). The peptides where tested in triplet at 20 and 400 μM. The cartilage tissue was incubated for another six days, mediums were exchanged every third day. On each occasion the media were collected for measurement of NO (Griess reaction).

Assay [3] relates to IL-1 stimulated synoviocytes. Description: IL-6 release in IL-1 stimulated synoviocytes (ELISA). The class given is cell-based, rat. As to conditions: 50-400 μM peptide, IL-1a 50 ng/ml, 72 hour. Here is the method:
The following experiments measure the IL-6 release in IL-1 stimulated synoviocytes.
Study design: From rats with antigen induced arthritis, the hyperproliferative synovium, pannus, was taken from the inflamed knee day four after disease onset. The pannus tissue was cut to small pieces in PBS with PEST (100 IU penicillin, 100 μg/ml streptomycin) and Fungizone (2.5 μg/ml)(all from InVitrogen, Sweden), before incubation in collagenase (400 U/ml, Worthington, USA) for 3 hours at 37° C., 5% CO2. Cells were centrifugated (8 min., room temperature, 1100 rpm.) and suspended in RPMI 1640 supplemented with 10% FCS (InVitrogen, Sweden), PEST and Fungizone and seeded in a 25 cm^2 flask at 37° C., 5% CO2. The following day, cells were rinsed once with medium and further incubated. When confluent, cells were trypsinated for 1 min (0.25% Trypsin with EDTA, InVitrogen, Sweden) counted and seeded in 96 well plates, 10000 cells/well/200 μl.
After 24 hours, the medium was changed and the cells were stimulated with human recombinant IL-1a, 50 ng/ml (Roche, Sweden). The peptide to be investigated was tested in triplets in the concentration interval 50-400 μM. After 72 hour incubation at 37° C., 5% CO2, the medium was collected for measurement of NO (Griess reaction) and IL-6 was analyzed by an ELISA, according to the manufacturer's instructions (BD Biosciences, USA).
On the technique in general: An ELISA detects its analyte on a solid surface through an enzyme-linked reagent.

With “H-[CQLRGLRRWLEAKASRPDATC]-OH (H-CQLRGLRRWLEAKASRPDATC-OH; also: cyclised (brackets), bond type not given here) [SEQ ID No. 9]”, in the assay with K105 cells, the “inhibitory effect on K105 cell adhesion to chondroadherin (Example II, FIG. 13)” value is recorded as “inhibitory effect”. Further, the “disease-ameliorating effect compared with methotrexate” value in assay [1] is “in the same magnitude as methotrexate treatment”. Further, the “knee-joint swelling compared with saline treated animals” value in assay [1] (4 days) is on record as “decreased”. Besides, the “NO-release from IL-1 stimulated cartilage explants” value in assay [2] is “decrease”. Also, the “IL-6-release from IL-1 stimulated synoviocytes” value in assay [3] was “decrease”.
